Measured values from paper PMC7587356, “High-Throughput Screening for Inhibitors of the SARS-CoV-2 Protease Using a FRET-Biosensor” (Molecules, 2020).
Read-outs that look alike come from different tables or passages of the source.

Key:
SARS-CoV-2 3CLpro [1] = target: T1, SARS-CoV-2 3CLpro (Severe acute respiratory syndrome coronavirus 2, UniProt P0DTD1); test: biochemical; type: biochemical
SARS-CoV-2 3CLpro [2] = target: T1, SARS-CoV-2 3CLpro; test: biochemical; type: biochemical; details: for inhibition at 5 µM: 4 h
[3] = EC50 with Triton X-100 / EC50 without Triton X-100, ratio greater than 2 suggests aggregation-based inhibitor
[4] = with 0.01% Triton X-100; mean ± SD of triplicate; 4 h, 30 °C; read-out: A) EC50 with Triton X-100
[5] = without Triton X-100; mean ± SD of triplicate; 4 h, 30 °C; read-out: B) EC50 without Triton X-100
[6] = sheet LOPAC_screen_w_protease, primary screen at 5 µM, mean of two replicates
[7] = sheet LOPAC_screen_w_protease, primary screen at 5 µM, replicate 1
[8] = sheet LOPAC_screen_w_protease, primary screen at 5 µM, replicate 2

Br.CCCN1CCc2cc(O)cc3c2[C@H]1Cc1ccc(O)c(O)c1-3 [R(−)-2-OH-NPA, R(−)-2,10,11-Trihydroxy-N-propylnoraporphine]
Ratio (A/B) (SARS-CoV-2 3CLpro [1]; [3]): 1.0 | EC50 (SARS-CoV-2 3CLpro [1]; [4]): 746 ± 91 nM | EC50 (SARS-CoV-2 3CLpro [1]; [5]): 715 ± 133 nM

NC1CCc2cc(O)c(O)cc2C1 (stereo not shown) [6,7-ADTN]
Ratio (A/B) (SARS-CoV-2 3CLpro [1]): 1.1 | EC50 (SARS-CoV-2 3CLpro [1]; [4]): 2380 ± 257 nM | EC50 (SARS-CoV-2 3CLpro [1]; [5]): 2120 ± 727 nM

COc1ccc2c(c1)CC[C@@H]1[C@@H]2CC[C@]2(C)[C@@H](NCCCCCCN3C(=O)C=CC3=O)CC[C@@H]12 [U-73122, reference compound]
Ratio (A/B) (SARS-CoV-2 3CLpro [1]; [3]): 2.0 | EC50 (SARS-CoV-2 3CLpro [1]; [4]): 694 ± 82 nM | EC50 (SARS-CoV-2 3CLpro [1]; [5]): 350 ± 17 nM | mean (LOPAC screen with protease) (SARS-CoV-2 3CLpro [2]; [6]): 88.5998 | Replicate_1 (LOPAC screen with protease) (SARS-CoV-2 3CLpro [2]; [7]): 89.4118 | Replicate_2 (LOPAC screen with protease) (SARS-CoV-2 3CLpro [2]; [8]): 87.7878

C=CCN1CCc2cccc3c2[C@H]1Cc1ccc(O)c(O)c1-3 [R(−)-N-Allylnorapomorphine]
Ratio (A/B) (SARS-CoV-2 3CLpro [1]; [3]): 0.9 | EC50 (SARS-CoV-2 3CLpro [1]; [4]): 346 ± 80 nM | EC50 (SARS-CoV-2 3CLpro [1]; [5]): 379 ± 83 nM

Br.Oc1ccc(C2CNCc3sccc32)cc1O (stereo not shown) [SKF 89626, reference compound]
Ratio (A/B) (SARS-CoV-2 3CLpro [1]): 1.2 | EC50 (SARS-CoV-2 3CLpro [1]; [4]): 3530 ± 565 nM | EC50 (SARS-CoV-2 3CLpro [1]; [5]): 2830 ± 1970 nM | mean (LOPAC screen with protease) (SARS-CoV-2 3CLpro [2]; [6]): 42.8167 | Replicate_1 (LOPAC screen with protease) (SARS-CoV-2 3CLpro [2]; [7]): 43.262 | Replicate_2 (LOPAC screen with protease) (SARS-CoV-2 3CLpro [2]; [8]): 42.3715

O=C1C(SCCO)=C(SCCO)C(=O)c2ccccc21 [NSC 95397, reference compound]
EC50 (SARS-CoV-2 3CLpro [1]; [4]): > 20000 nM | EC50 (SARS-CoV-2 3CLpro [1]; [5]): > 20000 nM | mean (LOPAC screen with protease) (SARS-CoV-2 3CLpro [2]; [6]): 19.1086 | Replicate_1 (LOPAC screen with protease) (SARS-CoV-2 3CLpro [2]; [7]): 20.9168 | Replicate_2 (LOPAC screen with protease) (SARS-CoV-2 3CLpro [2]; [8]): 17.3004

CC(=O)[C@]1(O)Cc2c(O)c3c(c(O)c2[C@@H](O[C@H]2C[C@H](N)[C@H](O)[C@H](C)O2)C1)C(=O)c1ccccc1C3=O [Idarubicin]
EC50 (SARS-CoV-2 3CLpro [1]; [4]): > 20000 nM | EC50 (SARS-CoV-2 3CLpro [1]; [5]): > 20000 nM

CC(C)C[C@H](N)CS [l-Leucinethiol]
Ratio (A/B) (SARS-CoV-2 3CLpro [1]): 2.2 | EC50 (SARS-CoV-2 3CLpro [1]; [4]): 4380 ± 770 nM | EC50 (SARS-CoV-2 3CLpro [1]; [5]): 1950 ± 110 nM

CC(C)(C)c1ccc(S(=O)(=O)/C=C/C#N)cc1 [Bay 11-7085, reference compound]
Ratio (A/B) (SARS-CoV-2 3CLpro [1]; [3]): 2.0 | EC50 (SARS-CoV-2 3CLpro [1]; [4]): 1620 ± 103 nM | EC50 (SARS-CoV-2 3CLpro [1]; [5]): 807 ± 120 nM | mean (LOPAC screen with protease) (SARS-CoV-2 3CLpro [2]; [6]): 90.2992 | Replicate_1 (LOPAC screen with protease) (SARS-CoV-2 3CLpro [2]; [7]): 92.052 | Replicate_2 (LOPAC screen with protease) (SARS-CoV-2 3CLpro [2]; [8]): 88.5464

N#CC(C#N)=C(N)/C(C#N)=C/c1cc(O)c(O)c(O)c1 [Tyrphostin 51, reference compound]
Ratio (A/B) (SARS-CoV-2 3CLpro [1]): 2.1 | EC50 (SARS-CoV-2 3CLpro [1]; [4]): 19000 ± 14200 nM | EC50 (SARS-CoV-2 3CLpro [1]; [5]): 9120 ± 5300 nM | inhibition at 5 µM (SARS-CoV-2 3CLpro [2]; read-out: Replicate_1 (LOPAC screen with protease)): 28% | inhibition at 5 µM (SARS-CoV-2 3CLpro [2]; read-out: Replicate_2 (LOPAC screen with protease)): 28.9% | inhibition at 5 µM (SARS-CoV-2 3CLpro [2]; read-out: mean (LOPAC screen with protease)): 28.5%

CCN(CC)C(=S)SSC(=S)N(CC)CC [Disulfiram]
reduction in levels of inhibition upon addition of 0.01% Triton X-100 (SARS-CoV-2 3CLpro [1]; with vs without 0.01% Triton X-100): > 2 fold

C[N+](C)(C)CCC(=O)c1cccc2ccccc12 [alpha-NETA, 2-(alpha-Naphthoyl)ethyltrimethylammonium]
Ratio (A/B) (SARS-CoV-2 3CLpro [1]): 0.9 | EC50 (SARS-CoV-2 3CLpro [1]; [4]): 227 ± 14 nM | EC50 (SARS-CoV-2 3CLpro [1]; [5]): 243 ± 51 nM

Oc1ccc(C2CNCCc3c2cc(O)c(O)c3Cl)cc1 (stereo not shown) [Fenoldopam]
EC50 (SARS-CoV-2 3CLpro [1]; [4]): > 20000 nM | EC50 (SARS-CoV-2 3CLpro [1]; [5]): 7190 ± 6080 nM

C[n+]1cc2c3c(ccc2c2ccc4cc5c(cc4c21)OCO5)OCO3 [Sanguinarine]
Ratio (A/B) (SARS-CoV-2 3CLpro [1]): 0.8 | EC50 (SARS-CoV-2 3CLpro [1]; [4]): 1780 ± 497 nM | EC50 (SARS-CoV-2 3CLpro [1]; [5]): 2240 ± 586 nM

O=C(/C=C/c1ccc(O)c(O)c1)OCCc1ccccc1 [Caffeic acid phenethyl ester, reference compound]
EC50 (SARS-CoV-2 3CLpro [1]; [4]): > 20000 nM | EC50 (SARS-CoV-2 3CLpro [1]; [5]): > 20000 nM | inhibition at 5 µM (SARS-CoV-2 3CLpro [2]; sheet LOPAC_screen_w_protease, primary screen at 5 µM, mean of two replicates, read-out: mean (LOPAC screen with protease)): 29.6% | inhibition at 5 µM (SARS-CoV-2 3CLpro [2]; sheet LOPAC_screen_w_protease, primary screen at 5 µM, replicate 1, read-out: Replicate_1 (LOPAC screen with protease)): 30.7% | inhibition at 5 µM (SARS-CoV-2 3CLpro [2]; sheet LOPAC_screen_w_protease, primary screen at 5 µM, replicate 2, read-out: Replicate_2 (LOPAC screen with protease)): 28.6%

CN(N=O)c1ccc(O)c(O)c1 [Me-3,4-dephostatin, reference compound]
Ratio (A/B) (SARS-CoV-2 3CLpro [1]): 2.1 | EC50 (SARS-CoV-2 3CLpro [1]; [4]): 3780 ± 867 nM | EC50 (SARS-CoV-2 3CLpro [1]; [5]): 1820 ± 925 nM | mean (LOPAC screen with protease) (SARS-CoV-2 3CLpro [2]; [6]): 27.3002 | Replicate_1 (LOPAC screen with protease) (SARS-CoV-2 3CLpro [2]; [7]): 29.2005 | Replicate_2 (LOPAC screen with protease) (SARS-CoV-2 3CLpro [2]; [8]): 25.3998

CN(C)C(=O)/N=N/C(=O)N(C)C [Diamide]
EC50 (SARS-CoV-2 3CLpro [1]; [4]): 17100 ± 20800 nM | EC50 (SARS-CoV-2 3CLpro [1]; [5]): > 20000 nM

Oc1ccc(Cn2cc[nH]c2=S)cc1 [1-Hbit]
EC50 (SARS-CoV-2 3CLpro [1]; [4]): 7080 ± 5150 nM | EC50 (SARS-CoV-2 3CLpro [1]; [5]): > 20000 nM

CN1CC[C@@]2(C)c3cc(O)ccc3N(C)[C@@H]12 [(−)-Eseroline]
Ratio (A/B) (SARS-CoV-2 3CLpro [1]): 1.3 | EC50 (SARS-CoV-2 3CLpro [1]; [4]): 994 ± 197 nM | EC50 (SARS-CoV-2 3CLpro [1]; [5]): 738 ± 201 nM

Oc1cc2c(c(Cl)c1O)CCNCC2c1ccccc1 (racemic) [(±)-6-Chloro-PB]
Ratio (A/B) (SARS-CoV-2 3CLpro [1]): 1.4 | EC50 (SARS-CoV-2 3CLpro [1]; [4]): 1440 ± 353 nM | EC50 (SARS-CoV-2 3CLpro [1]; [5]): 1020 ± 289 nM

R(−)-Propylnorapomorphine [R(−)-NPA]
Ratio (A/B) (SARS-CoV-2 3CLpro [1]): 1.0 | EC50 (SARS-CoV-2 3CLpro [1]; [4]): 426 ± 17 nM | EC50 (SARS-CoV-2 3CLpro [1]; [5]): 426 ± 77 nM
